Laboratory results as given in patent US7439223B2, “Nucleophosmin/B23-binding peptide to inhibit tumor growth and regulate transcriptional activity of p53” (Chang Gung University, priority 2005, dated 2008).
In brackets after ≈: the same amount, converted by molar mass. Blank lines part the entries; values can stand above or below the compound they belong to. Ends that are not written are not given here.

Legend:
U1 bladder cancer cells = test: U1 bladder cancer cell viability; format: cell-based; conditions: 24 hr, alone, read-out: concentration required to produce a 50% decrease in cell viability
Procedure: (§1) Regarding the cells and antibodies, MGH-U1 was established from a Grade III bladder transitional cell carcinoma. U1 and Ras-3T3 cells were grown in RPMI 1640 medium supplemented with 10% fetal bovine serum and 1% antibiotics in 5% CO2 humidified incubator at 37° C. The number of viable cells was determined by trypan blue exclusion and counted with a hemocytometer. Antinucleophosmin/B23 mAb, Anti-p53 polyclonal antibody (pAb) and anti-GAPDH were provided.
U1 (3×10^5) cells were treated with doxorubicin (DOX, 0.032-1.0 μg/ml). […] After 24 hr of exposure, cells were counted and survival was expressed as the percentage of surviving cells relative to the untreated cells. […] The relative tumor volumes were expressed as percentages of the initial volumes at first day of treatments. *p<0.05, as compared with control mice. […]
(§2) FIGS. 3A-3F illustrate Nucleophosmin/B23 regulates the increase in protein expression of p53. […] Total cell lysates were analyzed by western immunoblotting using antibodies specific for p53 and GAPDH. […] Total cell lysates were analyzed by Western immunoblotting using antibodies specific for nucleophosmin/B23, p53 and GAPDH. […] After 3 hours, cells were harvested and were analyzed by Western immunoblotting using antibodies specific for p53 and GAPDH. […] The cell extracts containing equal amounts of proteins were analyzed for CAT activity and luciferase activities. […]

Ras-3T3 cells [1] = test: tumor growth in nude mice, DOX, Rev or DOX+Rev subcutaneously adjacent to the tumors; format: in vivo; conditions: 20 μg/20 g body weight subcutaneously adjacent to the tumors daily for 5 days
Procedure: Doxorubicin (DOX), an anthracycline anti-tumor antibiotic, is active against a number of human cancers.
U1 (3×10^5) cells were treated with doxorubicin (DOX, 0.032-1.0 μg/ml). […] After 24 hr of exposure, cells were counted and survival was expressed as the percentage of surviving cells relative to the untreated cells. Data represent means ±standard deviations; n=3. In FIG. 2D, each mouse was inoculated with 3×10^5 Ras-3T3 cells (one site/mouse). […] Tumor volumes of DOX (20 μg/20 g body weight), Rev (1 mg/20 g body weight), DOX (10 μg/20 g body weight)+Rev (0.5 mg/20 g body weight) and PBS-treated (control) mice were plotted (n=5). The relative tumor volumes were expressed as percentages of the initial volumes at first day of treatments. *p<0.05, as compared with control mice. A Student's t-test was used for statistical analysis. Results shown are representative of three independent experiments.

[2] = test system: nucleophosmin/B23 over-expressed cells; test: cytotoxic effect on nucleophosmin/B23 over-expressed cells
[3] = test system: tumors induced by Ras-3T3 cells; test: nude mouse xenograft assay, intraperitoneal treatment; format: in vivo, nude mice; conditions: 10 mg/20 g body weight intraperitoneally once daily for 14 days, vs PBS
Procedure: Exponentially growing Ras-3T3 cells were harvested, washed and resuspended in PBS at 3×10^6 cells/ml. Tumor xenografts were established by inoculating one hundred microliters (100 μl) of the cell suspension subcutaneously into the right flanks of the nude mice. To assay the antitumor activity of Rev, T-NLS, and np-NLS peptides, they were administered to tumors as a systemic intraperitoneal or as a local subcutaneous treatment. For intraperitoneal treatment, mice were randomized into 4 groups of 5 animals after grafting.
Animals were treated once daily for 14 days beginning 48 hr after the inoculation of Ras-3T3 cells. […] Three-dimensional measurements were taken with electric caliper and the tumor volumes were calculated using the formula, V=4πxyz/3, where 2x, 2y and 2z were the three perpendicular diameters of the tumor. […] Statistical differences in the tumor volumes were analyzed by the student's t-test. […]
Next, a nude mouse xenograft assay was used to evaluate the antitumor effect of peptides on the growth of tumors induced by Ras-3T3 cells. […] During the course of treatment, tumor growth was monitored daily by caliper measurement.
In summary a review of the Figures is given. […] After 24 hours of exposure, cells were counted and survival was expressed as the percentage of surviving cells relative to the untreated cells. […]

Ras-3T3 cells [4] = test: cytotoxic effect of peptides on Ras-3T3 cell viability; format: cell-based; conditions: for effect on cellular viability: 25 to 400 μM
Procedure: as §1
Rev-NLS (Rev), T-NLS and np-NLS peptides were synthesized. The primary sequences of the peptides and the dissociation constants of their interactions with nucleophosmin/B23 are shown in FIG. 4. Rev, T-NLS, and np-NLS peptides were applied to Ras-3T3 cells in parallel experiments at concentrations ranging from 25 to 400 μM.
In summary a review of the Figures is given. FIGS. 1A-1D, illustrate Nucleophosmin/B23-binding peptide inhibits tumor growth of Ras-3T3 cells and tumors in nude mice. […] After 24 hours of exposure, cells were counted and survival was expressed as the percentage of surviving cells relative to the untreated cells. Data represent means ±standard deviations; n=3. […] The colonies were stained and scored 12 days after seeding and the efficiencies were calculated as the percentage relative to the untreated cells. Values were expressed as the means ± standard deviations for three determinations. […] Mean tumor volume ±standard deviation for each treatment group was plotted (n=5). Statistical differences in tumor volumes were determined by Student's t-test. […] Tumor volumes of Rev- and PBS-treated (control) mice were plotted (n=5). A Student's t-test was used for statistical analysis. Results shown are representative of three independent experiments.

nucleophosmin/B23 = conditions: cited from earlier work
p53 [5] = test: p53-dependent luciferase reporter (pGL13) in U1 cells; format: cell-based; conditions: 50-150 μM for 3 hours
Source text: pp53-TA-Luc contains a p53 response element, located upstream of the minimal TA promoter, the TATA box from the herpes simplex virus thymidine kinase promoter (PTA). Located downstream of PTA is the firefly luciferase reporter gene. Double stranded siRNA oligonucleotides against B23, siB23-297 (sense: 5′-[…]; and antisense: […]), and siB23-191 (sense 5′-[…] and antisense: […]) were synthesized. Two oligonucleotides were annealed and cloned into pSilencer™ siRNA expression vector by EcoR1 and Apa1.
Transfections were performed using Lipofectamine™ Reagent method. Before transfection, cells (2×10^5 per well) were seeded in 6-well plates overnight. […]
p53 protein is known to suppress tumor formation in vivo at least in part through its ability to induce cell death. […] The expression levels of p53 were measured by western blotting. […] Moreover, we analyzed whether the level of p53 changes upon siRNA mediated reduction of the intracellular amount of nucleophosmin/B23. […]
FIGS. 3A-3F illustrate Nucleophosmin/B23 regulates the increase in protein expression of p53. […] Total cell lysates were analyzed by western immunoblotting using antibodies specific for p53 and GAPDH. […] Total cell lysates were analyzed by Western immunoblotting using antibodies specific for nucleophosmin/B23, p53 and GAPDH. […] The cell extracts containing equal amounts of proteins were analyzed for CAT activity and luciferase activities. […]

p53 [6] = test: p53 expression level by western blotting in U1 cells; format: cell-based; conditions: 25-150 μM for 3 hours or 50 μM for 0.2-7 hours
Procedure: p53 protein is known to suppress tumor formation in vivo at least in part through its ability to induce cell death. The susceptibility of tumor cells to induction of cell death by cytotoxic drugs is modulated by p53 in many cases. It is then important for us to test whether the anti-tumor activity of nucleophosmin/B23-binding peptide is mediated through a p53 dependent regulation. […] The expression levels of p53 were measured by western blotting. […] In parallel, we transfected cells with a plasmid containing the luciferase reporter gene under the control of an artificial p53 target promoter (pGL13). […] Moreover, we analyzed whether the level of p53 changes upon siRNA mediated reduction of the intracellular amount of nucleophosmin/B23. […]
as §2

IC50 (U1 bladder cancer cells): 0.08 µg/mL (≈ 0.147 µM)
Compound: COc1cccc2c1C(=O)c1c(O)c3c(c(O)c1C2=O)C[C@@](O)(C(=O)CO)C[C@@H]3O[C@H]1C[C@H](N)[C@H](O)[C@H](C)O1 [DOX, Doxorubicin]
tumor growth versus PBS control (Ras-3T3 cells [1]): grew more slowly

Compound: ARRNRRRRWREYC-NH2 [Rev peptide]
dose needed to exert similar cytotoxic effect [2]: higher doses

Compound: KRPAATKKAGQAKKKKYC (listed as Homo sapiens) [np-NLS]
inhibition of tumor growth [3]: No inhibition of tumor growth | effect on cellular viability (Ras-3T3 cells [4]): little or virtually no effect | activity against cells (Ras-3T3 cells [4]; at 1 mM (data not shown)): no activity | binding affinity toward nucleophosmin/B23 (nucleophosmin/B23; in words): no binding affinity | increase in p53-dependent transcription from the pGL13 promoter (p53 [5]): No such increases | intracellular amount of p53 (protein expression) (p53 [6]): No such increases

Compound: PKKKRKVEDPYC [T-NLS, PKKKRKVE DPYC]
inhibition of tumor growth [3]: 63.6% | effect on cellular viability (Ras-3T3 cells [4]): little or virtually no effect | IC50 (Ras-3T3 cells [4]; read-out: concentration at which there was a 50% decrease in cell viability): ~1000 µM | Kd (nucleophosmin/B23; read-out: kd of interaction with nucleophosmin/B23): 0.824 µM
